According to US9375000B2, “Pesticidal arylpyrrolidines” (Bayer Intellectual Property GmbH, priority 2011, dated 2016):

Key:
Format in all cases: in vivo
[1] = system: Thrips palmi; assay: Thrips palmi spray test (THRIPL); settings: active compound concentration 20 ppm; after 6 days
Protocol: Unless not mentioned otherwise, the test solutions were prepared as follows:
Solvent: 3 parts by weight Dimethylformamide
Emulsifier: 1 part by weight Polyoxyethylene alkyl phenyl ether
In order to make an appropriate formulation of an active compound, 1 part by weight of the active compound is mixed with the above mentioned amount of solvent and emulsifier and the mixture is diluted with water to a prescribed concentration. Ammonium salt or ammonium salt and penetration enhancer in a dosage of 1000 ppm are added to the desired concentration if necessary.
The compound solutions are sprayed to a cucumber seedling (Cucumis sativus). After drying, the treated plant is placed in a plastic stand. About 100 thrips-eggs (Thrips palmi) on a piece of filter paper are attached to the plant and covered with a cage to keep 100% humidity. The plant is kept in a room at 23° C. After 6 days activity in % is evaluated by feeding damage degree. An insecticidal activity of 100 means that there was no feeding damage, whereas an insecticidal activity of 0% means that there is no difference to the untreated control.

[2] = system: Two-Spotted Spider Mite (Tetranychus urticae); assay: Two-spotted spider mite (Tetranychus urticae) spray test on kidney bean; settings: after 7 days; for pest or weed control at 20 ppm: Tetranychus urticae, 168 h, read-out: acaricidal activity
How it was run: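 Kidney bean plants at the two-leaf stage carried 50-100 adult mites and were sprayed one day later with compound in DMF/polyoxyethylene alkyl phenyl ether diluted in water. Ammonium salt and penetration enhancer at 1000 ppm were added if needed. Acaricidal activity (% mites killed) was scored after 7 days in a greenhouse.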

[3] = system: Cucurbit Leaf Beetle (Aulacophora femoralis); assay: Cucurbit leaf beetle (Aulacophora femoralis) cucumber leaf dip test; settings: after 7 days; for pest or weed control at 20 ppm: Aulacophora, foliar, 168 h, read-out: insecticidal activity
How it was run: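 Cucumber leaves dipped in compound formulated with DMF and polyoxyethylene alkyl phenyl ether, diluted in water, with ammonium salt or ammonium salt plus penetration enhancer at 1000 ppm added if necessary; dried leaves placed on sterilized soil with five second-instar larvae. Kept at 25° C; larval mortality counted after 7 days.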

[4] = system: Larvae of Spodoptera litura; assay: Larvae of Spodoptera litura, method using artificial feeds; settings: artificial feed, after 7 days; for pest or weed control at 20 ppm: Spodoptera litura, 168 h, read-out: insecticidal activity (pesticidal ratio)
How it was run: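 Compound formulated in dimethylformamide with polyoxyethylene alkyl phenyl ether emulsifier, water-diluted and poured onto artificial diet. Five 3rd-instar Spodoptera litura larvae per cup, held at 25° C and 50-60% humidity. Mortality after 7 days expressed as pesticidal ratio.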

[5] = active compound concentration 4 ppm
[6] = active compound concentration 20 ppm

SMILES | insecticidal activity (pesticidal ratio) [4, 5] [%] | acaricidal activity [2, 6] [%] | insecticidal activity [3, 6] [%] | insecticidal activity (pesticidal ratio) [4, 6] [%] | also measured
CC(=O)NCc1ccc(N2CCC(c3cc(C(F)(F)F)cc(C(F)(F)F)c3)(C(F)(F)F)C2O)cc1C(F)(F)F (mixture of isomers) [A1-56] | 100 |  |  |  | insecticidal activity (by feeding damage degree) [1]: 98%; acaricidal activity [2, 5]: 100%; insecticidal activity [3, 5]: 100%
O=C(NCc1ccc(N2CCC(c3cc(C(F)(F)F)cc(C(F)(F)F)c3)(C(F)(F)F)C2O)cc1C(F)(F)F)C1CC1 (mixture of isomers) [A1-60] | 100 | 100 |  |  | insecticidal activity (by feeding damage degree) [1]: 98%; insecticidal activity [3, 5]: 100%
CCC(=O)NCc1ccc(N2CCC(c3cc(Cl)cc(Cl)c3)(C(F)(F)F)C2O)cc1F (mixture of isomers) [A1-96] |  |  | 100 |  | insecticidal activity (by feeding damage degree) [1]: 90%
CCC(=O)NCc1ccc(N2CCC(c3ccc(F)c(C(F)(F)F)c3)(C(F)(F)F)C2O)nc1C(F)(F)F (mixture of isomers) [A3-233] | 100 |  | 100 | 100 | insecticidal activity (by feeding damage degree) [1]: 90%; insecticidal activity [3, 5]: 100%
CC(C)C(=O)NCc1ccc(N2CCC(c3cc(Cl)c(Cl)c(Cl)c3)(C(F)(F)F)C2O)nc1C(F)(F)F (stereo not shown) [A3-15] | 100 | 100 |  | 100 | insecticidal activity (by feeding damage degree) [1]: 90%; acaricidal activity [2, 5]: 100%
O=C(CC1CC1)NCc1ccc(N2CCC(c3cc(Cl)c(Cl)c(Cl)c3)(C(F)(F)F)C2O)nc1C(F)(F)F (stereo not shown) [A3-17] | 100 | 100 |  | 100 | insecticidal activity (by feeding damage degree) [1]: 90%; acaricidal activity [2, 5]: 100%
Cc1nc(N2CCC(c3cc(Cl)c(Cl)c(Cl)c3)(C(F)(F)F)C2O)ccc1CNC(=O)CC(F)(F)F (stereo not shown) [A3-84] |  | 100 | 100 | 100 | 
O=C(NCc1ccc(N2CCC(c3cc(Cl)c(Cl)c(Cl)c3)(C(F)(F)F)C2O)nc1Br)C1CC1 (stereo not shown) [A3-115] |  | 100 | 100 | 100 | 
O=C(CC(F)(F)F)NCc1ccc(N2CCC(c3cc(Cl)c(Cl)c(Cl)c3)(C(F)(F)F)C2O)nc1Br (stereo not shown) [A3-117] |  | 100 | 100 | 100 | 
CCC(=O)NCc1ccc(N2CCC(c3cc(C(F)(F)F)cc(C(F)(F)F)c3)(C(F)(F)F)C2O)nc1C (stereo not shown) [A3-123] |  | 100 | 100 | 100 | 
Cc1nc(N2CCC(c3cc(C(F)(F)F)cc(C(F)(F)F)c3)(C(F)(F)F)C2O)ccc1CNC(=O)CC1CC1 (stereo not shown) [A3-127] | 80 | 100 | 100 |  | acaricidal activity [2, 5]: 100%; insecticidal activity [3, 5]: 100%
Cc1nc(N2CCC(c3cc(C(F)(F)F)cc(C(F)(F)F)c3)(C(F)(F)F)C2O)ccc1CNC(=O)CC(F)(F)F (stereo not shown) [A3-128] |  | 100 | 100 | 100 | 
CCc1nc(N2CCC(c3cc(C(F)(F)F)cc(C(F)(F)F)c3)(C(F)(F)F)C2O)ccc1CNC(=O)C1CC1 (stereo not shown) [A3-137] |  | 100 | 100 | 100 | 
O=C(NCc1ccc(N2CCC(c3cc(C(F)(F)F)cc(C(F)(F)F)c3)(C(F)(F)F)C2O)nc1Br)C1CC1 (stereo not shown) [A3-159] |  | 100 | 100 | 100 | 
O=C(CC(F)(F)F)NCc1ccc(N2CCC(c3cc(C(F)(F)F)cc(C(F)(F)F)c3)(C(F)(F)F)C2O)nc1Br (stereo not shown) [A3-161, N-[(6-{3-[3,5-bis(trifluoromethyl)phenyl]-2-hydroxy-3-(trifluoromethyl)pyrrolidin-1-yl}-2-bromopyridin-3-yl)methyl]-3,3,3-trifluoropropanamide] |  |  |  |  | pest or weed control at 20 ppm [2, 6]: 100%; pest or weed control at 20 ppm [3, 6]: 100%; pest or weed control at 20 ppm [4, 6]: 100%
O=C(NCc1ccc(N2CCC(c3cc(Cl)c(F)c(Cl)c3F)(C(F)(F)F)C2O)nc1Br)C1CC1 (stereo not shown) [A3-326] | 100 | 100 |  |  | insecticidal activity [3, 5]: 100%
CC(=O)NCc1ccc(N2CCC(c3cc(Cl)cc(Cl)c3F)(C(F)(F)F)C2O)nc1C(F)(F)F (stereo not shown) [A3-344] | 100 | 100 |  |  | insecticidal activity [3, 5]: 100%

SMILES | insecticidal activity (pesticidal ratio) [4, 5] [%] | acaricidal activity [2, 6] [%] | insecticidal activity [3, 6] [%] | insecticidal activity (pesticidal ratio) [4, 6] [%] | also measured
CCC(=O)NCc1ccc(N2CCC(c3cc(Cl)cc(Cl)c3F)(C(F)(F)F)C2O)nc1C(F)(F)F (stereo not shown) [A3-345] | 100 | 100 |  |  | insecticidal activity [3, 5]: 100%
CC(=O)NCc1cc(F)c(N2CCC(c3cc(Cl)c(Cl)c(Cl)c3)(C(F)(F)F)C2O)nc1Cl (stereo not shown) [A3-366] | 100 |  |  |  | insecticidal activity (by feeding damage degree) [1]: 98%
CCC(=O)NCc1cc(F)c(N2CCC(c3cc(Cl)c(Cl)c(Cl)c3)(C(F)(F)F)C2O)nc1Cl (stereo not shown) [A3-367] | 100 |  |  |  | insecticidal activity (by feeding damage degree) [1]: 90%
O=C(NCc1cnc(N2CCC(c3cc(Cl)c(Cl)c(Cl)c3)(C(F)(F)F)C2O)nc1C(F)(F)F)C1CC1 (stereo not shown) [A4-16, N-({2-[2-hydroxy-3-(3,4,5-trichlorophenyl)-3-(trifluoromethyl)-pyrrolidin-1-yl]-4-(trifluoromethyl)pyrimidin-5-yl}methyl)cyclopropanecarboxamide] |  |  |  |  | pest or weed control at 20 ppm [2, 6]: 100%; pest or weed control at 20 ppm [3, 6]: 100%; pest or weed control at 20 ppm [4, 6]: 100%
O=C(CC(F)(F)F)NCc1cnc(N2CCC(c3cc(Cl)c(Cl)c(Cl)c3)(C(F)(F)F)C2O)nc1C(F)(F)F (stereo not shown) [A4-18] |  | 100 | 100 | 100 | 
CSCC(=O)NCc1cnc(N2CCC(c3cc(Cl)c(Cl)c(Cl)c3)(C(F)(F)F)C2O)nc1C(F)(F)F (stereo not shown) [A4-20] |  | 100 | 100 | 100 | 
C[S+]([O-])CC(=O)NCc1cnc(N2CCC(c3cc(Cl)c(Cl)c(Cl)c3)(C(F)(F)F)C2O)nc1C(F)(F)F (stereo not shown) [A4-21] |  | 100 | 100 | 100 | 
CS(=O)(=O)CC(=O)NCc1cnc(N2CCC(c3cc(Cl)c(Cl)c(Cl)c3)(C(F)(F)F)C2O)nc1C(F)(F)F (stereo not shown) [A4-22] |  | 100 | 100 | 100 | 
CCC(=O)NCc1cnc(N2CCC(c3cc(C(F)(F)F)cc(C(F)(F)F)c3)(C(F)(F)F)C2O)nc1C(F)(F)F (stereo not shown) [A4-24] |  | 100 | 100 | 100 | 
O=C(NCc1cnc(N2CCC(c3cc(C(F)(F)F)cc(C(F)(F)F)c3)(C(F)(F)F)C2O)nc1C(F)(F)F)C1CC1 (stereo not shown) [A4-27] |  | 100 | 100 | 100 | 
O=C(CC(F)(F)F)NCc1cnc(N2CCC(c3cc(C(F)(F)F)cc(C(F)(F)F)c3)(C(F)(F)F)C2O)nc1C(F)(F)F (stereo not shown) [A4-29] |  | 100 | 100 | 100 | 
COCCC(=O)NCc1cnc(N2CCC(c3cc(C(F)(F)F)cc(C(F)(F)F)c3)(C(F)(F)F)C2O)nc1C(F)(F)F (stereo not shown) [A4-30] |  | 100 | 100 | 100 | 
CSCC(=O)NCc1cnc(N2CCC(c3cc(C(F)(F)F)cc(C(F)(F)F)c3)(C(F)(F)F)C2O)nc1C(F)(F)F (stereo not shown) [A4-31] |  | 100 | 100 | 100 | 
C[S+]([O-])CC(=O)NCc1cnc(N2CCC(c3cc(C(F)(F)F)cc(C(F)(F)F)c3)(C(F)(F)F)C2O)nc1C(F)(F)F (stereo not shown) [A4-32] |  | 100 | 100 | 100 | 
CS(=O)(=O)CC(=O)NCc1cnc(N2CCC(c3cc(C(F)(F)F)cc(C(F)(F)F)c3)(C(F)(F)F)C2O)nc1C(F)(F)F (stereo not shown) [A4-33] |  | 100 | 100 | 100 | 
CCC(=O)NCc1cnc(N2CCC(c3cc(Cl)c(Cl)c(Cl)c3)(C(F)(F)F)C2O)nc1C(F)F (stereo not shown) [A4-216] | 100 |  | 100 |  | acaricidal activity [2, 5]: 100%
